# Laboratory results as given in US6338800B1, “Methods and compositions using lanthanum for removing phosphates from water” (Natural Chemistry, Inc., priority 2000, dated 2002).
# Excerpt: A test tank with a capacity of approximately 1100 liters was fitted with a HAYWARD® sand filter. The filter was approximately 0.09 square meters and contained approximately 18 kg of coarse sand. An identical tank was fitted with a HAYWARD ® cartridge filter, as is typically used with swimming pools. […] Water is then drawn through the filters using a pump. Each unit was fitted with necessary plumbing to permit test samples of reactant to be added upstream of the filter, to simulate adding the reactant to the skimmer in a full-sized pool. In this way, the reactant could be drawn through the plumbing and into or onto the filter. In this test orthophosphate, in the form of Na2HPO4, was used to simulate the increased phosphate level present in the water.
# This suspension was added upstream of the filter, thus it was drawn toward and into the filter.
compound,measurement,setting,value
"O=S(=O)([O-])[O-].O=S(=O)([O-])[O-].O=S(=O)([O-])[O-].[La+3].[La+3] [La2(SO4)3, lanthanum sulfate]",ratio of PO4 recovered to La added,"commercial grade (approximately 99.5% purity), 0.8 g Na2HPO4 added, otherwise as Example 1",0.35
same,PO4 removed,"reagent grade (99.9% pure), 3.5 g in 50 ml tap water added upstream of filter, 1135 L, approx. 800 ppb phosphate, after 2 hours pumping at approx. 75 L/min",0.65 g
same,ratio of PO4 to La observed in the experiment,"reagent grade (99.9% pure), 3.5 g, after 2 hours",0.38
